Reference: US8354403B2, “Pyrrolidine derived beta 3 adrenergic receptor agonists” (Merck Sharp & Dohme Corp., priority 2009, dated 2013)

biological target: T1, human β3 adrenergic receptor (Homo sapiens, UniProt P13945); experiment: Beta-3 agonist in vitro functional assay: cAMP production (LANCE TR-FRET) in CHO cells stably transfected with the cloned β3 receptor; type: cell-based; conditions: Table 5; cAMP, CHO cells; read-out: Human β3 agonist functional activity
T1 construct: expressed in transfected cells; host or cells: Chinese hamster ovary (CHO) cells, stably transfected
Summary of the method: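 CHO cells stably expressing the cloned receptor, in HEPES-buffered HBSS with BSA and 0.6 mM IBMX, 6,000 cells/well, exposed to compound for 30 min at RT. cAMP read by LANCE TR-FRET against a cAMP standard curve. Isoproterenol defines maximal stimulation.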

T1 sequence (P13945 whole entry): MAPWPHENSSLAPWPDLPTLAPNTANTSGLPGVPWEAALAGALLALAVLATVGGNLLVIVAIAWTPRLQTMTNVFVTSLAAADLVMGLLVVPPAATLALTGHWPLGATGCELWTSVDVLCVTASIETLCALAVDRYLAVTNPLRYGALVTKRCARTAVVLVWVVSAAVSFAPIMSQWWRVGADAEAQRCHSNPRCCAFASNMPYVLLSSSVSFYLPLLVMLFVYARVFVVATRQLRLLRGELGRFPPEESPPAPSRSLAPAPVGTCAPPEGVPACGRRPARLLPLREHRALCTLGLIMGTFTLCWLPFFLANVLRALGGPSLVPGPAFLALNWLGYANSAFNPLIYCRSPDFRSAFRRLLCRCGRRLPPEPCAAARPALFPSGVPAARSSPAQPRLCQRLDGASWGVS

`O=C(c1ncc(-c2cccc(F)n2)o1)C1CCN(C(=O)c2ccc(C[C@@H]3CC[C@H]([C@H](O)c4ccccc4)N3)cc2)CC1` [Example 121] and `O=C(c1ccc(C[C@@H]2CC[C@H]([C@H](O)c3ccccc3)N2)cc1)N1CCC(S(=O)(=O)c2cccc(F)c2)CC1` [Example 130] fall in the same range of EC50: 0.001 to 0.0099 µM for the first, 0.001 to 0.0099 µM for the second.

`CS(=O)(=O)C1CCN(C(=O)c2ccc(C[C@@H]3CC[C@H]([C@H](O)c4ccccc4)N3)cc2)CC1` [Example 122] and `O=C(c1ccc(C[C@@H]2CC[C@H]([C@H](O)c3ccccc3)N2)cc1)N1CCC(S(=O)(=O)O)CC1` [Example 141] fall in the same range of EC50: 0.01 to 0.0999 µM for the first, 0.01 to 0.0999 µM for the second.

`CS(=O)(=O)C1CCN(C(=O)c2ccc(C[C@@H]3CC[C@H]([C@H](O)c4cccnc4)N3)cc2)CC1` [Example 123] and `Cc1ccc(S(=O)(=O)C2CCN(C(=O)c3ccc(C[C@@H]4CC[C@H]([C@H](O)c5cccnc5)N4)cc3)CC2)cc1` [Example 135] fall in the same range of EC50: 0.1 to 0.999 µM for the first, 0.1 to 0.999 µM for the second.

Compared with `CCS(=O)(=O)C1CCN(C(=O)c2ccc(C[C@@H]3CC[C@H]([C@H](O)c4ccccc4)N3)cc2)CC1` [Example 124], `O=C(c1ccc(C[C@@H]2CC[C@H]([C@H](O)c3ccccc3)N2)cc1)N1CCC(S(=O)(=O)CC(F)(F)F)CC1` [Example 125] is higher in EC50: 0.001 to 0.0099 µM for the first, 0.01 to 0.0999 µM for the second. The first is the more potent here.

`O=C(c1ccc(C[C@@H]2CC[C@H]([C@H](O)c3ccccc3)N2)cc1)N1CCC(S(=O)(=O)C2CCCC2)CC1` [Example 126] and `O=C(c1ccc(C[C@@H]2CC[C@H]([C@H](O)c3ccccc3)N2)cc1)N1CCC(S(=O)(=O)c2ccccc2)CC1` [Example 127] fall in the same range of EC50: 0.01 to 0.0999 µM for the first, 0.01 to 0.0999 µM for the second.

`O=C(c1ccc(C[C@@H]2CC[C@H]([C@H](O)c3ccccc3)N2)cc1)N1CCC(S(=O)(=O)c2ccc(F)cc2)CC1` [Example 128] and `O=C(c1ccc(C[C@@H]2CC[C@H]([C@H](O)c3ccccc3)N2)cc1)N1CCC(S(=O)(=O)c2ccc(Cl)cc2)CC1` [Example 136] fall in the same range of EC50: 0.01 to 0.0999 µM for the first, 0.01 to 0.0999 µM for the second.

`O=C(c1ccc(C[C@@H]2CC[C@H]([C@H](O)c3cccnc3)N2)cc1)N1CCC(S(=O)(=O)c2ccc(F)cc2)CC1` [Example 129] and `O=C(c1ccc(C[C@@H]2CC[C@H]([C@H](O)c3cccnc3)N2)cc1)N1CCC(S(=O)(=O)c2cccc(F)c2)CC1` [Example 131] fall in the same range of EC50: 0.1 to 0.999 µM for the first, 0.1 to 0.999 µM for the second.

First: O=C(c1ccc(C[C@@H]2CC[C@H]([C@H](O)c3ccccc3)N2)cc1)N1CCC(S(=O)(=O)c2ccccc2F)CC1 [Example 132]
Second: O=C(c1ccc(C[C@@H]2CC[C@H]([C@H](O)c3ccccc3)N2)cc1)N1CCC(S(=O)(=O)c2ccc(F)cc2F)CC1 [Example 139]
The EC50 of the first is lower: 0.001 to 0.0099 µM for the first, 0.01 to 0.0999 µM for the second. The first is the more potent here.

`O=C(c1ccc(C[C@@H]2CC[C@H]([C@H](O)c3cccnc3)N2)cc1)N1CCC(S(=O)(=O)c2ccccc2F)CC1` [Example 133] and `O=C(c1ccc(C[C@@H]2CC[C@H]([C@H](O)c3ccccc3)N2)cc1)N1CCC(S(=O)(=O)c2cc(F)ccc2F)CC1` [Example 140] fall in the same range of EC50: 0.01 to 0.0999 µM for the first, 0.01 to 0.0999 µM for the second.

`N#Cc1ccc(S(=O)(=O)C2CCN(C(=O)c3ccc(C[C@@H]4CC[C@H]([C@H](O)c5ccccc5)N4)cc3)CC2)cc1` [Example 137] and `O=C(c1ccc(C[C@@H]2CC[C@H]([C@H](O)c3ccccc3)N2)cc1)N1CCC(S(=O)(=O)c2ccc(F)c(F)c2)CC1` [Example 138] fall in the same range of EC50: 0.01 to 0.0999 µM for the first, 0.01 to 0.0999 µM for the second.

First: O=C(c1ccc(C[C@@H]2CC[C@H]([C@H](O)c3ccccc3)N2)cc1)N1CCC(Cn2ccnc2)CC1 [Example 142]
Second: O=C(c1ccc(C[C@@H]2CC[C@H]([C@H](O)c3ccccc3)N2)cc1)N1CCC(Cn2cccn2)CC1 [Example 143]
The EC50 of the first is higher: 0.1 to 0.999 µM for the first, 0.01 to 0.0999 µM for the second. The second is the more potent here.

`O=C(c1ccc(C[C@@H]2CC[C@H]([C@H](O)c3ccccc3)N2)cc1)N1CCC(Cc2ccccc2F)CC1` [Example 144] and `O=C(c1ccc(C[C@@H]2CC[C@H]([C@H](O)c3ccccc3)N2)cc1)N1CCC(Cc2ccc(F)cc2)CC1` [Example 145] fall in the same range of EC50: 0.01 to 0.0999 µM for the first, 0.01 to 0.0999 µM for the second.

`COc1ccc(CC2CCN(C(=O)c3ccc(C[C@@H]4CC[C@H]([C@H](O)c5ccccc5)N4)cc3)CC2)cc1F` [Example 147] and `O=C(c1ccc(C[C@@H]2CC[C@H]([C@H](O)c3ccccc3)N2)cc1)N1CCC(COc2ccncn2)CC1` [Example 162] fall in the same range of EC50: 0.01 to 0.0999 µM for the first, 0.01 to 0.0999 µM for the second.

Compared with `O=C(c1ccc(C[C@@H]2CC[C@H]([C@H](O)c3ccccc3)N2)cc1)N1CCC(Cn2ncccc2=O)CC1` [Example 148], `O=C(c1ccc(C[C@@H]2CC[C@H]([C@H](O)c3ccccc3)N2)cc1)N1CCC(Cn2cnccc2=O)CC1` [Example 149] is higher in EC50: 0.01 to 0.0999 µM for the first, 0.1 to 0.999 µM for the second.

Compared with `O=C(c1ccc(C[C@@H]2CC[C@H]([C@H](O)c3ccccc3)N2)cc1)N1CCC(Cn2cccnc2=O)CC1` [Example 150], `O=C(c1ccc(C[C@@H]2CC[C@H]([C@H](O)c3ccccc3)N2)cc1)N1CCC(Cn2ccncc2=O)CC1` [Example 151] is lower in EC50: 0.1 to 0.999 µM for the first, 0.01 to 0.0999 µM for the second.

First: O=C(c1ccc(C[C@@H]2CC[C@H]([C@H](O)c3ccccc3)N2)cc1)N1CCC(Oc2ccccn2)CC1 [Example 152]
Second: O=C(c1ccc(C[C@@H]2CC[C@H]([C@H](O)c3ccccc3)N2)cc1)N1CCC(OCc2ccccn2)CC1 [Example 163]
The EC50 of the first is lower: 0.01 to 0.0999 µM for the first, 0.1 to 0.999 µM for the second. The first is the more potent here.

`Cc1cncnc1OC1CCN(C(=O)c2ccc(C[C@@H]3CC[C@H]([C@H](O)c4ccccc4)N3)cc2)CC1` [Example 153] and `Cc1nccc(OC2CCN(C(=O)c3ccc(C[C@@H]4CC[C@H]([C@H](O)c5ccccc5)N4)cc3)CC2)n1` [Example 154] fall in the same range of EC50: 0.1 to 0.999 µM for the first, 0.1 to 0.999 µM for the second.

`O=C(c1ccc(C[C@@H]2CC[C@H]([C@H](O)c3ccccc3)N2)cc1)N1CCC(Oc2cncc(Cl)n2)CC1` [Example 155] and `O=C(O)c1cc(OC2CCN(C(=O)c3ccc(C[C@@H]4CC[C@H]([C@H](O)c5ccccc5)N4)cc3)CC2)no1` [Example 160] fall in the same range of EC50: 0.1 to 0.999 µM for the first, 0.1 to 0.999 µM for the second.

First: CS(=O)(=O)c1ccccc1OC1CCN(C(=O)c2ccc(C[C@@H]3CC[C@H]([C@H](O)c4ccccc4)N3)cc2)CC1 [Example 156]
Second: CNC(=O)c1ccccc1OC1CCN(C(=O)c2ccc(C[C@@H]3CC[C@H]([C@H](O)c4ccccc4)N3)cc2)CC1 [Example 157]
The EC50 of the first is lower: 0.01 to 0.0999 µM for the first, 0.1 to 0.999 µM for the second. The first is the more potent here.

`CN(C)C(=O)c1cc(OC2CCN(C(=O)c3ccc(C[C@@H]4CC[C@H]([C@H](O)c5ccccc5)N4)cc3)CC2)no1` [Example 158] and `COC(=O)c1cc(OC2CCN(C(=O)c3ccc(C[C@@H]4CC[C@H]([C@H](O)c5ccccc5)N4)cc3)CC2)no1` [Example 159] fall in the same range of EC50: 0.1 to 0.999 µM for the first, 0.1 to 0.999 µM for the second.

First: O=C(c1ccc(C[C@@H]2CC[C@H]([C@H](O)c3ccccc3)N2)cc1)N1CCC(COc2cnccn2)CC1 [Example 161]
Second: CC(Oc1ccncn1)C1CCN(C(=O)c2ccc(C[C@@H]3CC[C@H]([C@H](O)c4ccccc4)N3)cc2)CC1 (stereo partly drawn) [Example 167]
The EC50 of the first is lower: 0.01 to 0.0999 µM for the first, 0.1 to 0.999 µM for the second. The first is the more potent here.

`CC(c1ccccn1)C1CCN(C(=O)c2ccc(C[C@@H]3CC[C@H]([C@H](O)c4ccccc4)N3)cc2)CC1` (stereo partly drawn) [Example 164] and `O=C(c1ccc(C[C@@H]2CC[C@H]([C@H](O)c3ccccc3)N2)cc1)N1CCC(C(O)c2ccccn2)CC1` (stereo partly drawn) [Example 168] fall in the same range of EC50: 0.01 to 0.0999 µM for the first, 0.01 to 0.0999 µM for the second.

`CC(C1CCN(C(=O)c2ccc(C[C@@H]3CC[C@H]([C@H](O)c4ccccc4)N3)cc2)CC1)n1ncccc1=O` (stereo partly drawn) [Example 165] and `CC(C1CCN(C(=O)c2ccc(C[C@@H]3CC[C@H]([C@H](O)c4ccccc4)N3)cc2)CC1)n1cnccc1=O` (stereo partly drawn) [Example 166] fall in the same range of EC50: 0.01 to 0.0999 µM for the first, 0.01 to 0.0999 µM for the second.

same assay, conditions: Table 7; cAMP, CHO cells; ranges as given for Tables 6 and 7; read-out: Human β3 agonist functional activity

Compared with `O=C(OCc1ccccc1)C1C2CN(C(=O)c3ccc(C[C@@H]4CC[C@H]([C@H](O)c5ccccc5)N4)cc3)CC21` (stereo partly drawn) [Example 229], `CCOC(=O)C1C2CN(C(=O)c3ccc(CC4CCC(C(O)c5ccccc5)N4)cc3)CC21` (stereo not drawn) [Example 230] is higher in EC50: less than 0.001 µM for the first, 0.01 to 0.0999 µM for the second. The first is the more potent here.

Compared with `O=C(O)C1C2CN(C(=O)c3ccc(CC4CCC(C(O)c5ccccc5)N4)cc3)CC21` (stereo not drawn) [Example 231], `O=C(c1ncco1)C1C2CN(C(=O)c3ccc(C[C@@H]4CC[C@H]([C@H](O)c5ccccc5)N4)cc3)CC21` (stereo partly drawn) [Example 234] is lower in EC50: 0.1 to 0.999 µM for the first, 0.01 to 0.0999 µM for the second.

`O=C(c1ccc(CC2CCC(C(O)c3ccccc3)N2)cc1)N1CC2C(C1)C2Cn1nccn1` (stereo not drawn) [Example 232] and `O=C(c1ccc(CC2CCC(C(O)c3ccccc3)N2)cc1)N1CC2C(C1)C2Cn1ccnn1` (stereo not drawn) [Example 233] fall in the same range of EC50: 0.1 to 0.999 µM for the first, 0.1 to 0.999 µM for the second.

`N#CC1(c2cnccn2)C2CN(C(=O)c3ccc(C[C@@H]4CC[C@H]([C@H](O)c5ccccc5)N4)cc3)CC21` (stereo partly drawn) [Example 235] and `N#CC1(c2ccccn2)C2CN(C(=O)c3ccc(C[C@@H]4CC[C@H]([C@H](O)c5ccccc5)N4)cc3)CC21` (stereo partly drawn) [Example 238] fall in the same range of EC50: 0.01 to 0.0999 µM for the first, 0.01 to 0.0999 µM for the second.

`N#CC1(c2cccnn2)C2CN(C(=O)c3ccc(C[C@@H]4CC[C@H]([C@H](O)c5ccccc5)N4)cc3)CC21` (stereo partly drawn) [Example 236] and `N#CC1(c2ncccn2)C2CN(C(=O)c3ccc(C[C@@H]4CC[C@H]([C@H](O)c5ccccc5)N4)cc3)CC21` (stereo partly drawn) [Example 237] fall in the same range of EC50: 0.01 to 0.0999 µM for the first, 0.01 to 0.0999 µM for the second.

same assay, conditions: Table 8; Beta-3 agonist in vitro functional assay; read-out: Human β3 agonist functional activity

With `O=C(c1ccc(C[C@@H]2CC[C@H]([C@H](O)c3ccccc3)N2)cc1)N1CCC(F)(S(=O)(=O)c2ccc(F)cc2)CC1` [Example 240] the EC50 was 0.01 to 0.0999 µM.

same assay, conditions: given as a range; cAMP, CHO cells; read-out: human β3 functional activity

`O=C(c1ccc(C[C@@H]2CC[C@H]([C@H](O)c3ccccc3)N2)cc1)N1C[C@@H]2C(n3cnnn3)[C@@H]2C1` (stereo partly drawn) [Example 169, (R)-phenyl[(2R,5S)-5-(4-{[(1R,5S,6r)-6-(1H-tetraol-1-yl)-3-azabicyclo[3.1.0]hex-3yl]carbonyl}benzyl)pyrrolidine-2-yl]methanol] and `O=C(c1ccc(C[C@@H]2CC[C@H]([C@H](O)c3ccccc3)N2)cc1)N1C[C@@H]2[C@H](C1)[C@H]2c1nnco1` [Example 170] fall in the same range of EC50: 0.001 to 0.0099 µM for the first, 0.001 to 0.0099 µM for the second.

`O=C(c1ccc(C[C@@H]2CC[C@H]([C@H](O)c3ccccc3)N2)cc1)N1CCC2(CCOC2=O)CC1` [Example 239, 8-[4-({(2S,5R)-5-[(R)-hydroxy(phenyl)methyl]pyrrolidin-2-yl}methyl)benzoyl]-2-oxa-8-azaspiro[4.5]decan-1-one] gave an EC50 of 0.001 to 0.0099 µM.
